# Literature values as cited in patent US9206237B2, “Cystine knot peptides that bind alpha-V-beta-6 integrin” (priority 2011, dated 2015).
# Read-outs that look alike come from different tables or passages of the source.
# How the values were obtained:
# alpha-v-beta-6 [1] = biological target: T1, alpha-v-beta-6 (Homo sapiens, UniProt P06756+P18564); settings: inhibition of RGD-dependent ligand binding; read-out: IC50, isolated receptor assays
# Target sequence in this assay (P06756 31-992 limits assumed): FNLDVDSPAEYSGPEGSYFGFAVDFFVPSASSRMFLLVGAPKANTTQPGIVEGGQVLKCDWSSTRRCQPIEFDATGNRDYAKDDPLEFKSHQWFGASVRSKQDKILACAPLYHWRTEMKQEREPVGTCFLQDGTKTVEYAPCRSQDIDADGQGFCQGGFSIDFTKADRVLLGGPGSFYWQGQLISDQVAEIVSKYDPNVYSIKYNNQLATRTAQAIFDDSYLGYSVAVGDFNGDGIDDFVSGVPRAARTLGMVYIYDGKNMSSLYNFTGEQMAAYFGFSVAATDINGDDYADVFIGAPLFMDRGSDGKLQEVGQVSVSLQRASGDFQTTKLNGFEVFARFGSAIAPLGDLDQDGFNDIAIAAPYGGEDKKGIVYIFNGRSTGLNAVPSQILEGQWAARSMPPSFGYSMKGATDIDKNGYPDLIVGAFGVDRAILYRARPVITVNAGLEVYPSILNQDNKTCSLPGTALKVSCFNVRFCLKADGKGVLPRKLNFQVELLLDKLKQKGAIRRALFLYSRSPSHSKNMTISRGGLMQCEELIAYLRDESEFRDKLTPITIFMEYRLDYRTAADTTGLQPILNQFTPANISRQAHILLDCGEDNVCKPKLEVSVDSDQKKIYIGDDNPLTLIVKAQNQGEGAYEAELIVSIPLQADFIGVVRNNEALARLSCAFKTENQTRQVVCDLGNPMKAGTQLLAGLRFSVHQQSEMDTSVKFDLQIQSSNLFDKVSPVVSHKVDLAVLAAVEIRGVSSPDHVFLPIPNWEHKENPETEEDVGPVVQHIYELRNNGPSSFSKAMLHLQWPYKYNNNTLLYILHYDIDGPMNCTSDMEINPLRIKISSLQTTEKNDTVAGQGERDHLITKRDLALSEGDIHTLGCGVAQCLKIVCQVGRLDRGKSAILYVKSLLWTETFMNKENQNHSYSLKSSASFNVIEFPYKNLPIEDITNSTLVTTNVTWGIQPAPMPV
# Target sequence in this assay (P18564 22-709 limits assumed): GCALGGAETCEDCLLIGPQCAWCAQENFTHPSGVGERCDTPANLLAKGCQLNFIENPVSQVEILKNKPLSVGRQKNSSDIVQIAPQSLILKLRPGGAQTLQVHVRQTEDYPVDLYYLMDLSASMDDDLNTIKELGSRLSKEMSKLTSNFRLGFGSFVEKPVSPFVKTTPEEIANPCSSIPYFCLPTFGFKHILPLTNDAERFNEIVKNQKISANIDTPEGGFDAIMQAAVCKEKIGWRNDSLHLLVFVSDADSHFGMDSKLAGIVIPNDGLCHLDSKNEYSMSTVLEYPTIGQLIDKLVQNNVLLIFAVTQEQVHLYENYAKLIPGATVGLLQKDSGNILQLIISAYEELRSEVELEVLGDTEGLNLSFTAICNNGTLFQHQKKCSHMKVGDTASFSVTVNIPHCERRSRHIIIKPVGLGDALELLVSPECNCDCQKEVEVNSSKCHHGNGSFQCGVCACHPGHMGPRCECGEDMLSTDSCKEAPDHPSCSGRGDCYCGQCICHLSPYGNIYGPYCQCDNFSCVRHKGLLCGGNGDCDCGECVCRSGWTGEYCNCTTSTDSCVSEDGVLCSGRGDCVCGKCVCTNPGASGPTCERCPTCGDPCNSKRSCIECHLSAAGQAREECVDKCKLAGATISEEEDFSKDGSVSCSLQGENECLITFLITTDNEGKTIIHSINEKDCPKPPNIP
# alpha-v-beta-6 [2] = biological target: T1, alpha-v-beta-6; settings: read-out: IC50, cell adhesion assays
# Target sequence in this assay (P06756 31-1048): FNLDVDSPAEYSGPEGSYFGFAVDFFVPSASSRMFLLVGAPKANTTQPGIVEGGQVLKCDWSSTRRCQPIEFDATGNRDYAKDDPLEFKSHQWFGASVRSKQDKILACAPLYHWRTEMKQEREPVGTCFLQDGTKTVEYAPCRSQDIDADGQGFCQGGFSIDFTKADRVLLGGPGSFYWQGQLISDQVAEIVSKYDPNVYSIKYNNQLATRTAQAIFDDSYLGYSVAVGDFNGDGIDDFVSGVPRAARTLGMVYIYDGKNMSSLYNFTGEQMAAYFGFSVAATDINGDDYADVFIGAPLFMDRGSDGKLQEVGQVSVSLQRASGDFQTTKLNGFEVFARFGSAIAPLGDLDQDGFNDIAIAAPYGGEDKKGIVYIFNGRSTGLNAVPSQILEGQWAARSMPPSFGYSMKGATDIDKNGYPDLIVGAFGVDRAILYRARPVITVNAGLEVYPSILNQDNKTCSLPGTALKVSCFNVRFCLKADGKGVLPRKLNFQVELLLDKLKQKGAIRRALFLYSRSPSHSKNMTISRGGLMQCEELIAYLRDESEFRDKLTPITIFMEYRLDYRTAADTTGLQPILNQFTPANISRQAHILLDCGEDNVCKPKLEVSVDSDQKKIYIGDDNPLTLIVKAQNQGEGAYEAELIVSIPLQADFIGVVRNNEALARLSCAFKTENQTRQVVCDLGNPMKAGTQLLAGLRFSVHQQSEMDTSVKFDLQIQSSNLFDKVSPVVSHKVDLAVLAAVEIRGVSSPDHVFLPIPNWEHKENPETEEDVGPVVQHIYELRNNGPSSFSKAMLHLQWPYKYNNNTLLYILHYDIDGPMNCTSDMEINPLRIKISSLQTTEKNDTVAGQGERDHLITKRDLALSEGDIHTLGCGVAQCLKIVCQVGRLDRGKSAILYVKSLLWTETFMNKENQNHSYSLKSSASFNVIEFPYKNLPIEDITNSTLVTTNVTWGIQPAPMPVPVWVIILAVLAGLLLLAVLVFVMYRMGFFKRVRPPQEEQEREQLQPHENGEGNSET
# Target sequence in this assay (P18564 22-788): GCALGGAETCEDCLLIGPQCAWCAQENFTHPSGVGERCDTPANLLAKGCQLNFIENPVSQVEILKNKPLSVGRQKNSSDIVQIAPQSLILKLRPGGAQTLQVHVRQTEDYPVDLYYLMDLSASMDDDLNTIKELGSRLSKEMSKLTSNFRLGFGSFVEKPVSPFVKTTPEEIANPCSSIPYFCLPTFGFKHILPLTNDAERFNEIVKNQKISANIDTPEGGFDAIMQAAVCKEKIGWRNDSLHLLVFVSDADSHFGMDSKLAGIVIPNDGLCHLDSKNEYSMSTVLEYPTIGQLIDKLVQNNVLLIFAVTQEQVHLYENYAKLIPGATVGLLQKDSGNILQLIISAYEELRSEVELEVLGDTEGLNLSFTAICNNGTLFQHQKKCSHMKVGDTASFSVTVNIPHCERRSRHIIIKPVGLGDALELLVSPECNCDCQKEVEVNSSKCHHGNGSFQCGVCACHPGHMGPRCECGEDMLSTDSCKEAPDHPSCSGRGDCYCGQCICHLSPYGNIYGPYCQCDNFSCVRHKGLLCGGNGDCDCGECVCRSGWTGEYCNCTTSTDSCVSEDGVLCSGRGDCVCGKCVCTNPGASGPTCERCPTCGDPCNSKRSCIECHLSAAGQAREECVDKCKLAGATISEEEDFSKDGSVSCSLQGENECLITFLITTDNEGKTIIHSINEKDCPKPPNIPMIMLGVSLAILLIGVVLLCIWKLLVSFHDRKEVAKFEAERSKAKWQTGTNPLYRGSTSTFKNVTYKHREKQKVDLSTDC
sequence,measurement,setting,value
RTDLDSLRTYTL,IC50,alpha-v-beta-6 [1],0.02 µM
same,IC50,alpha-v-beta-6 [2],50 µM
